Measurements published in PubChem BioAssay (NCI).
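Cells were grown in 96-well plates and exposed to each compound for 48 hours at five concentrations; endpoints were interpolated linearly between bracketing concentrations, or set to the highest concentration if not reached. GI50 is the concentration that inhibits growth by half. The concentration for full growth arrest is given as TGI.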

Legend:
Assay in all cases: NCI-60 cell line screen, 48 h
NCI-H226 lung = test system: NCI-H226 lung
SW-620 colon = test system: SW-620 colon
K-562 leukemia = test system: K-562 leukemia
786-0 renal = test system: 786-0 renal
HOP-62 NSCLC = test system: HOP-62 NSCLC
SK-MEL-2 melanoma = test system: SK-MEL-2 melanoma
LOX IMVI melanoma = test system: LOX IMVI melanoma
HCT-15 colon = test system: HCT-15 colon
NCI-H460 lung = test system: NCI-H460 lung
OVCAR-8 ovarian = test system: OVCAR-8 ovarian

Row | SMILES | GI50 (NCI-H226 lung) [µM] | TGI (NCI-H226 lung) [µM] | GI50 (SW-620 colon) [µM] | TGI (SW-620 colon) [µM] | GI50 (K-562 leukemia) [µM] | TGI (K-562 leukemia) [µM] | GI50 (786-0 renal) [µM] | TGI (786-0 renal) [µM] | GI50 (HOP-62 NSCLC) [µM] | TGI (HOP-62 NSCLC) [µM] | GI50 (SK-MEL-2 melanoma) [µM] | TGI (SK-MEL-2 melanoma) [µM] | GI50 (LOX IMVI melanoma) [µM] | TGI (LOX IMVI melanoma) [µM] | GI50 (HCT-15 colon) [µM] | TGI (HCT-15 colon) [µM] | GI50 (NCI-H460 lung) [µM] | TGI (NCI-H460 lung) [µM] | GI50 (OVCAR-8 ovarian) [µM] | TGI (OVCAR-8 ovarian) [µM]
1 | CCCCNC(=O)Oc1ccc2c(=O)c3sc4c(=O)c5ccccc5c(=O)c4c3c(=O)c2c1 | 1.12 | 2.47 | 0.409 | 1.58 | 0.937 | 11.5 | 1.77 | 4.23 | 0.144 | 0.277 | 1.37 | 3.3 | 0.327 | 1.75 | 0.16 | 0.36 | 0.195 | 0.395 | 1.44 | 4.76
2 | N#C/C(=C/C=C/c1ccccc1)S(=O)c1ccccc1 (configuration not stated) | 1.92 | 5.88 | 0.337 | 1.13 | 0.32 | 90.8 | 0.322 | 1.36 | 1.29 | 5.36 | 2.09 | 5.62 | 0.163 | 0.337 | 0.211 | 0.638 | 0.506 | 2.92 | 0.338 | 1.73
3 | CCCCCCCC(=O)OCC1OC(n2cc(F)c(=O)[nH]c2=O)C(NC(=O)OCc2ccccc2)C(OC(=O)CCCCCCC)C1O (configuration not stated) | – | – | – | > 100 | – | 61.8 | – | 65.1 | – | > 100 | – | 57.1 | – | 29.7 | – | > 100 | – | > 100 | – | > 100
4 | O=C(COc1ccc(Cl)cc1)N1N=C(c2ccc([N+](=O)[O-])o2)CC1(O)c1ccccc1 (configuration not stated) | – | 55.6 | – | 21.5 | – | 29.7 | – | 20.7 | – | 35.8 | – | 21 | – | 23.8 | – | 18.5 | – | 23.1 | – | 23.6
5 | CC(C)(C)N1CC(OC(N)=O)C1 | > 100 | > 100 | > 100 | > 100 | > 100 | > 100 | > 100 | > 100 | > 100 | > 100 | > 100 | > 100 | > 100 | > 100 | > 100 | > 100 | > 100 | > 100 | > 100 | > 100
6 | N#Cc1ccc(-c2nc3ccc(Cl)cc3[nH]2)cc1 | – | > 100 | – | > 100 | – | > 100 | – | > 100 | – | > 100 | – | > 100 | – | – | – | > 100 | – | – | – | > 100
7 | NC1=NC(c2ccccc2)CC(c2cc(Cl)cc(Br)c2O)=N1 (configuration not stated) | – | 34.3 | – | 26.2 | – | 17.4 | – | 31.5 | – | 25.1 | – | 18.6 | – | 27.7 | – | 31.1 | – | 19.9 | – | 38.5
8 | N#CC(C(=O)CCC(=O)Nc1ccc(Cl)cc1)c1ccccc1Cl (configuration not stated) | – | > 100 | – | > 100 | – | > 100 | – | > 100 | – | – | – | > 100 | – | – | – | > 100 | – | > 100 | – | > 100
9 | O=C(O)CN(c1ccccc1)S(=O)(=O)c1ccc(Cl)cc1 | – | – | – | > 100 | – | > 100 | – | > 100 | – | – | – | > 100 | – | > 100 | – | > 100 | – | > 100 | – | > 100
10 | C[C@@H](Oc1cc(NS(=O)(=O)N2CCC2)nc(SCc2cccc(F)c2F)n1)[C@@H](O)CO | > 100 | > 100 | > 100 | > 100 | > 100 | > 100 | > 100 | > 100 | > 100 | > 100 | > 100 | > 100 | > 100 | > 100 | > 100 | > 100 | > 100 | > 100 | > 100 | > 100
11 | COc1cc2ccnc3c2c(c1OC)CC1CC(O)C(OC)CC31 (configuration not stated) | – | > 100 | – | > 100 | – | > 100 | – | > 100 | – | > 100 | – | > 100 | – | > 100 | – | > 100 | – | > 100 | – | > 100
12 | CCCC1C(=O)C(CC)Cc2c(OC)ccc(OC)c21 (configuration not stated) | – | > 100 | – | > 100 | – | > 100 | – | > 100 | – | > 100 | – | > 100 | – | > 100 | – | > 100 | – | > 100 | – | > 100
13 | COc1ccccc1N1CCN(C(=O)c2ccc(NS(=O)(=O)c3cccc4cccnc34)cc2)CC1 | > 33.2 | > 100 | > 100 | > 100 | > 100 | > 100 | > 61.7 | > 100 | > 49.7 | > 100 | > 100 | > 100 | > 100 | > 100 | > 100 | > 100 | > 100 | > 100 | > 43.5 | > 100
14 | O=C(O)CCSC(=O)Nc1cccc([N+](=O)[O-])c1 | – | – | – | > 100 | – | > 100 | – | > 100 | – | > 100 | – | > 100 | – | > 100 | – | > 100 | – | > 100 | – | > 100
15 | CNC(=O)c1cncc(/C=C/c2c(C)cccc2C)c1 | > 25 | > 25 | > 25 | > 25 | > 22.3 | > 25 | > 25 | > 25 | > 25 | > 25 | > 25 | > 25 | 16.2 | > 25 | > 25 | > 25 | > 25 | > 25 | > 25 | > 25
16 | COc1cc([C@@H]2c3cc4c(cc3[C@H](OC(C)=O)[C@H]3COC(=O)[C@H]23)OCO4)cc(OC)c1OC | 0.0975 | > 100 | 0.0334 | > 100 | 0.0321 | > 100 | 0.0341 | > 100 | 0.0483 | > 100 | 27.6 | > 100 | 0.0293 | > 100 | 0.0316 | > 100 | 0.0317 | > 100 | 0.0361 | > 100
